≈ marks a conversion by molar mass, not a printed value. Where a SMILES comes first, the peptide text is derived from it. [ ]: non-standard residue; d: D form. 2Thi = N[C@@H](Cc1cccs1)C(=O)O; Aib = CC(C)(N)C(=O)O
How the values were obtained:
E. coli ATCC 25922 = assay type: cell-based, Escherichia coli; conditions: ATCC 25922, 20 h
In short: (§1)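 Inocula were set to 0.5 McFarland and diluted to ~5 × 10^5 CFU/mL (bacteria, MH broth) or 0.5 × 10^3 to 2.5 × 10^3 CFU/mL (yeast, RPMI 1640). Peptide twofold dilutions were added, plates incubated 20 h at 37°C or 48 h at 35°C, then scored by eye.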

P. aeruginosa ATCC 27853 = assay type: cell-based, Pseudomonas aeruginosa; conditions: ATCC 27853, 20 h
In short: as §1

S. aureus ATCC 25923 = test: microbe, parasite or virus in culture; assay type: cell-based, Staphylococcus aureus; conditions: ATCC 25923, 20 h
In short: as §1

C. albicans ATCC 10231 = test: microbe, parasite or virus in culture; assay type: cell-based, Candida albicans; conditions: ATCC 10231, 48 h
In short: as §1

[1] = system: proteases secreted by S. aureus ATCC 25923; test: in vitro
In short: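 Cell-free culture supernatants (overnight, 37°C; MH broth for bacteria, 2% tryptone/2% dextrose for yeast) were centrifuged, adjusted to pH 8.0 and 0.22 μm filtered. Peptides at 0.5 mg/mL were incubated in supernatant 24 h at 37°C; remaining intact peptide measured by RP-HPLC, with peptide-free supernatant as negative control.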

human erythrocytes = test: Hemolytic activity assay; assay type: cell-based; conditions: human RBC in PB, 37°C, 1 h, OD420, total lysis control 0.1% SDS, three technical replicates
In short: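 Washed RBCs from a healthy volunteer were incubated with peptides at 32–128 μM for 1 h at 37°C in PB. Hemoglobin release into the supernatant was read as OD420 against total lysis with 0.1% SDS, in three technical replicates.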

RAW 264.7 cells = test: Cell viability assay (MTT); assay type: cell-based, mouse; conditions: 1–128 μM peptide in DMEM with 4% FBS, 42 h, 595 nm, triplicate
In short: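 RAW 264.7 cells (1 × 10^4/well, DMEM + 10% FBS) grown overnight to 80% confluency, then exposed to peptides at 1–128 μM in DMEM with 4% FBS for 42 h at 37 °C. MTT read at 595 nm; viability relative to medium-only controls, triplicate, IC50 as 50% loss of viability.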

BALB/c mice = test: In vivo acute toxicity, single injection; set-up: species or system mouse; conditions: monitored 24 h
Protocol: Six-week-old mice (approximate weight: 18–20 g, SFP grade) were bred and maintained under specific pathogen-free conditions on a 12 h light/dark cycle. The peptides were dissolved in PBS (pH 7.4) and three mice were used for each dose. As a control, colistin was administered in a similar manner. The mice were monitored for 24 h and mice were weighed at the end of the experiment. The procedure was evaluated and approved by the Ethical Committee of Experimental Animals of the Chia Tai Tianqing Pharmaceutical Group in August 2019.
As summarized in Figure 6, a toxicity score was assigned as follows: no abnormalities = without signs; mild depression, poor motility, purple-black tail, and recovery in 1 h = mild signs; serious depression and poor motility even under stimulation = manifest signs; sudden death within 10 min = died of toxic effects.

CC(C)C[C@H](NC(=O)[C@H](Cc1ccc(O)cc1)NC(=O)[C@H](CCCCN)NC(=O)[C@H](CC(C)C)NC(=O)[C@H](CC(C)C)NC(=O)[C@H](CCCCN)NC(=O)[C@H](CCCCN)NC(=O)[C@H](Cc1ccccc1)NC(=O)[C@H](CC(C)C)NC(=O)[C@H](CCCNC(=N)N)NC(=O)C(C)(C)N)C(=O)N[C@@H](CCCNC(=N)N)C(=O)N[C@@H](CCCCN)C(=O)N[C@@H](Cc1cccs1)C(N)=O [UP09] (H-[Aib]RLFKKLLKYLRK[2Thi]-NH2; N-terminus assumed)
MIC (E. coli ATCC 25922): 2 µg/mL (≈ 1.08 µM) | MIC (P. aeruginosa ATCC 27853): 2 µg/mL (≈ 1.08 µM) | MIC (S. aureus ATCC 25923): 1 µg/mL (≈ 0.542 µM) | MIC (C. albicans ATCC 10231): 4 µg/mL (≈ 2.17 µM) | Percent of remained peptide amount after incubation (%) ([1]; S. aureus ATCC 25923 culture supernatant (MH broth), pH 8.0, 0.22 μm filtered, peptide 0.5 mg/mL, 37°C, 24 h, RP-HPLC): 36.92 ± 3.97 % | Hemolysis rate (%) (human erythrocytes; 64 μM): 55.99 ± 3.75 % | Hemolysis rate (%) (human erythrocytes; 128 μM): 95.99 ± 2.10 % | IC50 (RAW 264.7 cells): 26.2 ± 1.8 µM | signs of toxicity after intravenous injection (BALB/c mice; single i.v. dose, all tested doses (5, 10, 20 mg/kg), three mice per dose): Mild depression and purple-black tails

CC(C)C[C@H](NC(=O)[C@H](CC(C)C)NC(=O)[C@@H](CCCCN)NC(=O)[C@@H](CCCCN)NC(=O)[C@H](Cc1ccccc1)NC(=O)[C@H](CC(C)C)NC(=O)[C@@H](CCCNC(=N)N)NC(=O)[C@H](N)CCCCN)C(=O)N[C@H](CCCCN)C(=O)N[C@@H](Cc1ccc(O)cc1)C(=O)N[C@@H](CC(C)C)C(=O)N[C@H](CCCNC(=N)N)C(=O)N[C@H](CCCCN)C(=O)N[C@@H](Cc1ccccc1)C(N)=O [DP06] (H-[dK][dR]LF[dK][dK]LL[dK]YL[dR][dK]F-NH2)
MIC (E. coli ATCC 25922): 1 µg/mL (≈ 0.532 µM) | MIC (P. aeruginosa ATCC 27853): 1 µg/mL (≈ 0.532 µM) | MIC (S. aureus ATCC 25923): 0.5 µg/mL (≈ 0.266 µM) | MIC (C. albicans ATCC 10231): 2 µg/mL (≈ 1.06 µM) | remaining at 24 h, 0.5 mg/mL ([1]; Staphylococcus aureus, S. aureus ATCC 25923 culture supernatant, pH 8): 86.4 ± 4.81% | Hemolysis rate (%) (human erythrocytes; 64 μM): 37.14 ± 2.73% | Hemolysis rate (%) (human erythrocytes; 128 μM): 59.99 ± 2.41% | IC50 (RAW 264.7 cells): 48.8 ± 6.97 µM | signs of toxicity after intravenous injection (BALB/c mice; single i.v. dose 5 mg/kg, three mice): sudden death within 1 min of injection | signs of toxicity after intravenous injection (BALB/c mice; single i.v. dose 10 mg/kg, three mice): sudden death within 1 min of injection
